Patent publication US20150094294A1, “COMPOUNDS AND METHODS FOR TREATING MALARIA” (Cellceutix Corporation, priority 2012, published 2015)
pEC50, pIC50: −log10 of the molar value. In brackets after ≈: the same amount, converted by molar mass.

What was measured:
Format in all cases: cell-based
[1] = Cytotoxicity against 3T3 cells; details: mouse, 3T3 cells; read-out: Cytotoxicity 3T3 EC50
[2] = test system: P. falciparum 3D7 (chloroquine-sensitive); assay: Anti-malarial activity, P. falciparum 3D7 culture, 72 hour, DNA content by flow cytometry; details: Plasmodium falciparum, 3D7, 72 h, synchronized ring-stage parasites
Procedure: Numerous compounds were screened in cultures of the malaria parasite P. falciparum 3D7 (chloroquine-sensitive) and DD2 (chloroquine-resistant). The compounds were also screened for toxixcity against 3T3 cells, HepG2 cells, and in a hemolysis assay. In brief, P. falciparum parasites were cultured in RPMI 1640 (Invitrogen) supplemented with Albumax II (Invitrogen). For synchronization, schizont stage parasites were magnet purified using a SuperMACS™ II Cell Separation Unit (Miltenyi Biotech). For IC50 determinations, synchronized ring-stage parasites were plated at 0.5% parasitemia and 8% hematocrit in 96-well plates at a total volume of 50 μL. Serial dilutions of 2× concentration of the respective compound, ranging from 2.5 μM to 20 nM, were added to the wells to bring the total volume up to 100 μL and 4% hematocrit. Compounds were assayed for a 72 hour period, after which the cultures were fixed with a solution of 4% paraformaldehyde and 0.08% glutaraldhyde in PBS. The cells were then permeabilized with 0.25% Triton X-100, and SYTOX Green Nucleic Acid Stain (Invitrogen) in PBS was added to a final concentration of 5 μM. DNA content, as an indicator of parasitemia, was analyzed on an Accuri C6 Flow Cytometer with C-Sampler. IC50 curves were generated using GraphPad Prism (GraphPad Software).

[3] = Cytotoxicity against HepG2 cells; details: human, HepG2 cells; read-out: Cytotoxicity HepG2 EC50
in vitro = assay: in vitro

Compound | pEC50 [1] | pIC50 [2] | pEC50 [3] | EC50 (in vitro) [µg/mL]
Cn1c(-c2ccc(N3CCNCC3)cc2)cnc1-c1ccc(N2CCNCC2)cc1 [Compound 259] | < 3.00 | < 7.00 | < 3.00 | 287 (≈ 713 µM)
COc1cc(SCCN)c(C(F)(F)F)cc1NC(=O)c1cc(C(=O)Nc2cc(C(F)(F)F)c(SCCN)cc2OC)ncn1 [Compound 301] | 3.15 | 7.54 | 3.11 | < 1
N#Cc1ccc(C(=O)Nc2cc(C(F)(F)F)cc(NC(=O)c3cc(C(=O)Nc4cc(C(F)(F)F)cc(NC(=O)c5ccc(C#N)cc5)c4SCCN)ncn3)c2SCCN)cc1 [Compound 307] | 3.07 | 7.39 | 3.05 | 757 (≈ 848 µM)
N=C(N)NCCCCC(=O)Nc1cc(C(F)(F)F)cc(NC(=O)c2cc(C(=O)Nc3cc(C(F)(F)F)cc(NC(=O)CCCCNC(=N)N)c3SCCNC(=O)CN)ncn2)c1SCCNC(=O)CN [Compound 160] | 4.18 | 6.03 | 3.65 | 250 (≈ 242 µM)
c1cc(N2CCNCC2)ccc1-c1ccc(N2CCNCC2)cc1 [Compound 317] | 3.26 | < 7.00 | 3.30 | > 1000
NCCSc1ccc(NC(=O)c2cc(C(=O)Nc3ccc(SCCN)c(C(F)(F)F)c3)ncn2)cc1C(F)(F)F [Compound 188] | 6.00 | 6.86 | 5.05 | 4 (≈ 6.62 µM)
NCCSc1c(NC(=O)c2cccc(Br)c2)cc(C(F)(F)F)cc1NC(=O)c1cc(C(=O)Nc2cc(C(F)(F)F)cc(NC(=O)c3cccc(Br)c3)c2SCCN)ncn1 [Compound 306] | 3.09 | < 7.00 | 3.09 | 793 (≈ 792 µM)
c1cc(N2CCNCC2)ccc1-c1ccc(-c2ccc(N3CCNCC3)cc2)o1 [Compound 255] | 4.54 | 6.82 | 4.35 | 28 (≈ 72.1 µM)
N=C(N)NCCSc1nc(-c2cccc(CCNC(=N)N)c2)cc(-c2cccc(CCNC(=N)N)c2)n1 [Compound 222] | 3.12 | 6.26 | < 3.00 | > 1000
NCCSc1c(NC(=O)c2ccccc2)cc(C(F)(F)F)cc1NC(=O)c1cc(C(=O)Nc2cc(C(F)(F)F)cc(NC(=O)c3ccccc3)c2SCCN)ncn1 [Compound 304] | 3.03 | 7.16 | 3.03 | 3 (≈ 3.56 µM)
O=C(Nc1ccc(C2CCNCC2)cc1)c1cc(C(=O)Nc2ccc(C3CCNCC3)cc2)ncn1 [Compound 208] | 3.91 | 6.86 | 3.74 | 12 (≈ 24.8 µM)
N#Cc1cccc(C(=O)Nc2cc(NC(=O)c3cc(C(=O)Nc4cc(NC(=O)c5cccc(C#N)c5)cc(C(F)(F)F)c4)c(OCCN)cc3OCCN)cc(C(F)(F)F)c2)c1 [Compound 299] | 3.04 | < 7.00 | 3.04 | 251 (≈ 292 µM)
N=C(N)NCCc1cccc(-c2cc(-c3cccc(CCNC(=N)N)c3)ncn2)c1 [Compound 221] | < 3.00 | 7.10 | < 3.00 | > 1000
NCCCc1cccc(-c2cncc(-c3ccc(-c4cncc(-c5cccc(CCCN)c5)c4)s3)c2)c1 [Compound 232] | 4.43 | 6.56 | 4.25 | 6 (≈ 11.9 µM)
N=C(N)NCCCOc1cc(OCCCNC(=N)N)c(-c2ccncc2)cc1-c1ccncc1 [Compound 140] | < 2.84 | 6.22 | < 2.84 | > 1000
NCCSc1ccc(NC(=O)c2cc(C(=O)Nc3ccc(SCCN)cc3)ncn2)cc1 [Compound 192] | 3.02 | 6.74 | < 3.00 | 32 (≈ 68.3 µM)
N=C(N)NCCc1ccc(-c2ccc(-c3ccc(CCNC(=N)N)cc3)s2)cc1 [Compound 248] | 4.30 | 8.52 | 4.27 | 24 (≈ 59 µM)
CC(=O)Nc1cc(C(F)(F)F)cc(NC(=O)c2cc(C(=O)Nc3cc(C(F)(F)F)cc(NC(C)=O)c3SCCN)ncn2)c1SCCN [Compound 303] | 3.05 | 7.47 | < 3.00 | 62 (≈ 86.3 µM)
